Laboratory results: ChEMBL document CHEMBL4229379, “Synthesis and structure-activity relationship of novel bisindole amidines active against MDR Gram-positive and Gram-negative bacteria” (Eur J Med Chem, 2018)
Values after ≈ are worked out from the molar mass of the structure shown.

Experiments:
[1] = test system: Proteus vulgaris; assay: Antibacterial activity against Proteus vulgaris ATCC 29905 after 18 hrs by CLSI broth microdilution method; type: functional; conditions: ATCC 29905, 18 h
[2] = test system: Escherichia coli; assay: Antibacterial activity against extended-spectrum beta-lactamase harboring Escherichia coli 12-15 after 18 hrs by CLSI broth microdilution method; type: functional; conditions: 12-15, 18 h
[3] = test system: Staphylococcus epidermidis; assay: Antibacterial activity against methicillin-sensitive Staphylococcus epidermidis 12-6 after 18 hrs by CLSI broth microdilution method; type: functional; conditions: 12-6, 18 h
[4] = test system: Enterococcus faecium; assay: Antibacterial activity against vancomycin-resistant Enterococcus faecium ATCC 700221 after 18 hrs by CLSI broth microdilution method; type: functional; conditions: ATCC 700221, 18 h
[5] = test system: Escherichia coli; assay: Antibacterial activity against extended-spectrum beta-lactamase deficient Escherichia coli 1515 after 18 hrs by CLSI broth microdilution method; type: functional; conditions: Escherichia coli, 1515, 18 h
[6] = test system: Stenotrophomonas maltophilia; assay: Antibacterial activity against Stenotrophomonas maltophilia ATCC 13636 after 18 hrs by CLSI broth microdilution method; type: functional; conditions: ATCC 13636, 18 h
[7] = test system: Pseudomonas aeruginosa; assay: Antibacterial activity against Pseudomonas aeruginosa 12-16 after 18 hrs by CLSI broth microdilution method; type: functional; conditions: 12-16, 18 h
[8] = test system: Pseudomonas aeruginosa; assay: Antibacterial activity against Pseudomonas aeruginosa ATCC 27853 after 18 hrs by CLSI broth microdilution method; type: functional; conditions: ATCC 27853, 18 h
[9] = test system: Enterococcus faecium; assay: Antibacterial activity against vancomycin-resistant Enterococcus faecium 12-1 after 18 hrs by CLSI broth microdilution method; type: functional; conditions: 12-1, 18 h
[10] = test system: Escherichia coli; assay: Antibacterial activity against extended-spectrum beta-lactamase deficient Escherichia coli ATCC 25922 after 18 hrs by CLSI broth microdilution method; type: functional; conditions: ATCC 25922, 18 h
[11] = test system: Staphylococcus aureus; assay: Antibacterial activity against methicillin-sensitive Staphylococcus aureus 15 after 18 hrs by CLSI broth microdilution method; type: functional; conditions: Staphylococcus aureus, 15, 18 h
[12] = test system: Enterococcus faecium; assay: Antibacterial activity against vancomycin-sensitive Enterococcus faecium 12-3 after 18 hrs by CLSI broth microdilution method; type: functional; conditions: 12-3, 18 h
[13] = test system: Enterobacter cloacae; assay: Antibacterial activity against Enterobacter cloacae ATCC 43560 after 18 hrs by CLSI broth microdilution method; type: functional; conditions: ATCC 43560, 18 h
[14] = test system: Staphylococcus aureus; assay: Antibacterial activity against methicillin-sensitive Staphylococcus aureus 12-28 after 18 hrs by CLSI broth microdilution method; type: functional; conditions: 12-28, 18 h
[15] = test system: Staphylococcus aureus; assay: Antibacterial activity against methicillin-sensitive Staphylococcus aureus ATCC 29213 after 18 hrs by CLSI broth microdilution method; type: functional; conditions: ATCC 29213, 18 h
[16] = test system: Klebsiella pneumoniae; assay: Antibacterial activity against new delhi metallo-beta-lactamase-1 harboring Klebsiella pneumoniae ATCC BAA-2146 after 18 hrs by CLSI broth microdilution method; type: functional; conditions: ATCC BAA-2146, 18 h
[17] = test system: Staphylococcus aureus; assay: Antibacterial activity against methicillin-resistant Staphylococcus aureus ATCC 33591 after 18 hrs by CLSI broth microdilution method; type: functional; conditions: ATCC 33591, 18 h
[18] = Cytotoxicity against HEK293T cells assessed as reduction in cell viability after 48 hrs by MTS assay; type: cell-based, HEK-293T; conditions: human
[19] = test system: Acinetobacter calcoaceticus; assay: Antibacterial activity against Acinetobacter calcoaceticus ATCC 19606 after 18 hrs by CLSI broth microdilution method; type: functional; conditions: ATCC 19606, 18 h
[20] = test system: Staphylococcus aureus; assay: Antibacterial activity against methicillin-resistant Staphylococcus aureus 12-33 after 18 hrs by CLSI broth microdilution method; type: functional; conditions: 12-33, 18 h
[21] = test system: Escherichia coli; assay: Antibacterial activity against extended-spectrum beta-lactamase deficient Escherichia coli 12-14 after 18 hrs by CLSI broth microdilution method; type: functional; conditions: 12-14, 18 h
[22] = test system: Klebsiella pneumoniae; assay: Antibacterial activity against extended-spectrum beta-lactamase harboring Klebsiella pneumoniae 12-8 after 18 hrs by CLSI broth microdilution method; type: functional; conditions: 12-8, 18 h
[23] = test system: Pseudomonas aeruginosa; assay: Antibacterial activity against Pseudomonas aeruginosa PAO1 after 18 hrs by CLSI broth microdilution method; type: functional; conditions: PAO1, 18 h
[24] = test system: Enterococcus faecalis; assay: Antibacterial activity against vancomycin-sensitive Enterococcus faecalis ATCC 29212 after 18 hrs by CLSI broth microdilution method; type: functional; conditions: ATCC 29212, 18 h
[25] = test system: Klebsiella pneumoniae; assay: Antibacterial activity against extended-spectrum beta-lactamase deficient Klebsiella pneumoniae 12-4 after 18 hrs by CLSI broth microdilution method; type: functional; conditions: 12-4, 18 h
[26] = test system: Klebsiella aerogenes; assay: Antibacterial activity against Enterobacter aerogenes ATCC 13048 after 18 hrs by CLSI broth microdilution method; type: functional; conditions: ATCC 13048, 18 h
[27] = test system: Citrobacter freundii; assay: Antibacterial activity against Citrobacter freundii ATCC 43864 after 18 hrs by CLSI broth microdilution method; type: functional; conditions: ATCC 43864, 18 h
[28] = test system: Staphylococcus epidermidis; assay: Antibacterial activity against methicillin-sensitive Staphylococcus epidermidis ATCC 12228 after 18 hrs by CLSI broth microdilution method; type: functional; conditions: ATCC 12228, 18 h
[29] = test system: Serratia marcescens; assay: Antibacterial activity against Serratia marcescens ATCC 21074 after 18 hrs by CLSI broth microdilution method; type: functional; conditions: ATCC 21074, 18 h
[30] = test system: Enterococcus faecalis; assay: Antibacterial activity against vancomycin-sensitive Enterococcus faecalis 12-5 after 18 hrs by CLSI broth microdilution method; type: functional; conditions: 12-5, 18 h
[31] = test system: Proteus mirabilis; assay: Antibacterial activity against Proteus mirabilis 12-6 after 18 hrs by CLSI broth microdilution method; type: functional; conditions: 12-6, 18 h
[32] = test system: Providencia rettgeri; assay: Antibacterial activity against Providencia rettgeri ATCC 31052 after 18 hrs by CLSI broth microdilution method; type: functional; conditions: ATCC 31052, 18 h
[33] = test system: Enterococcus faecalis; assay: Antibacterial activity against vancomycin-resistant Enterococcus faecalis 09-9 after 18 hrs by CLSI broth microdilution method; type: functional; conditions: 09-9, 18 h
[34] = test system: Klebsiella pneumoniae; assay: Antibacterial activity against extended-spectrum beta-lactamase harboring Klebsiella pneumoniae ATCC 700603 after 18 hrs by CLSI broth microdilution method; type: functional; conditions: Klebsiella pneumoniae, 700603, 18 h
[35] = test system: Staphylococcus epidermidis; assay: Antibacterial activity against methicillin-resistant Staphylococcus epidermidis 12-8 after 18 hrs by CLSI broth microdilution method; type: functional; conditions: 12-8, 18 h
[36] = test system: Klebsiella pneumoniae; assay: Antibacterial activity against extended-spectrum beta-lactamase deficient Klebsiella pneumoniae 7 after 18 hrs by CLSI broth microdilution method; type: functional; conditions: Klebsiella pneumoniae, 7, 18 h
[37] = test system: Enterococcus faecalis; assay: Antibacterial activity against vancomycin-resistant Enterococcus faecalis ATCC 51299 after 18 hrs by CLSI broth microdilution method; type: functional; conditions: ATCC 51299, 18 h

Structure (SMILES)	MIC [1]	MIC [2]	MIC [3]	MIC [4]	MIC [5]	MIC [6]	MIC [7]	MIC [8]	MIC [9]	MIC [10]	MIC [11]	MIC [12]	MIC [13]	MIC [14]	MIC [15]	MIC [16]	MIC [17]	CC50 at 48 h [18]	MIC [19]	MIC [20]	further results
CN(C)C(=N)c1ccc2cc(-c3cnc(-c4cc5ccc(C(=N)N(C)C)cc5[nH]4)cn3)[nH]c2c1	16 µg/mL (≈ 35.5 µM)	16 µg/mL (≈ 35.5 µM)	4 µg/mL (≈ 8.88 µM)	4 µg/mL (≈ 8.88 µM)	4 µg/mL (≈ 8.88 µM)	32 µg/mL (≈ 71 µM)	> 128 µg/mL	128 µg/mL (≈ 284 µM)	2 µg/mL (≈ 4.44 µM)	4 µg/mL (≈ 8.88 µM)	1 µg/mL (≈ 2.22 µM)	4 µg/mL (≈ 8.88 µM)	8 µg/mL (≈ 17.8 µM)	1 µg/mL (≈ 2.22 µM)	1 µg/mL (≈ 2.22 µM)	16 µg/mL (≈ 35.5 µM)	1 µg/mL (≈ 2.22 µM)	13 µg/mL (≈ 28.8 µM)	32 µg/mL (≈ 71 µM)	4 µg/mL (≈ 8.88 µM)	MIC [21]: 4 µg/mL (≈ 8.88 µM); MIC [22]: 16 µg/mL (≈ 35.5 µM); MIC [23]: > 128 µg/mL; MIC [24]: 4 µg/mL (≈ 8.88 µM); MIC [25]: 16 µg/mL (≈ 35.5 µM); MIC [26]: 16 µg/mL (≈ 35.5 µM); MIC [27]: 8 µg/mL (≈ 17.8 µM); MIC [28]: 0.5 µg/mL (≈ 1.11 µM); MIC [29]: 128 µg/mL (≈ 284 µM); MIC [30]: 8 µg/mL (≈ 17.8 µM); MIC [31]: 64 µg/mL (≈ 142 µM); MIC [32]: 16 µg/mL (≈ 35.5 µM); MIC [33]: 4 µg/mL (≈ 8.88 µM); MIC [34]: 64 µg/mL (≈ 142 µM); MIC [35]: 1 µg/mL (≈ 2.22 µM); MIC [36]: 16 µg/mL (≈ 35.5 µM); MIC [37]: 8 µg/mL (≈ 17.8 µM)
CN(C)C(=N)c1ccc2cc(-c3cncc(-c4cc5ccc(C(=N)N(C)C)cc5[nH]4)c3)[nH]c2c1	4 µg/mL (≈ 8.9 µM)	1 µg/mL (≈ 2.22 µM)	0.25 µg/mL (≈ 0.556 µM)	2 µg/mL (≈ 4.45 µM)	2 µg/mL (≈ 4.45 µM)	8 µg/mL (≈ 17.8 µM)	> 64 µg/mL	16 µg/mL (≈ 35.6 µM)	1 µg/mL (≈ 2.22 µM)	2 µg/mL (≈ 4.45 µM)	0.5 µg/mL (≈ 1.11 µM)	2 µg/mL (≈ 4.45 µM)	4 µg/mL (≈ 8.9 µM)	0.5 µg/mL (≈ 1.11 µM)	0.5 µg/mL (≈ 1.11 µM)	4 µg/mL (≈ 8.9 µM)	0.5 µg/mL (≈ 1.11 µM)	1.75 µg/mL (≈ 3.89 µM)	8 µg/mL (≈ 17.8 µM)	0.5 µg/mL (≈ 1.11 µM)	MIC [21]: 1 µg/mL (≈ 2.22 µM); MIC [22]: 4 µg/mL (≈ 8.9 µM); MIC [23]: > 64 µg/mL; MIC [24]: 2 µg/mL (≈ 4.45 µM); MIC [25]: 8 µg/mL (≈ 17.8 µM); MIC [26]: 4 µg/mL (≈ 8.9 µM); MIC [27]: 8 µg/mL (≈ 17.8 µM); MIC [28]: 0.25 µg/mL (≈ 0.556 µM); MIC [29]: 16 µg/mL (≈ 35.6 µM); MIC [30]: 2 µg/mL (≈ 4.45 µM); MIC [31]: 8 µg/mL (≈ 17.8 µM); MIC [32]: 2 µg/mL (≈ 4.45 µM); MIC [33]: 2 µg/mL (≈ 4.45 µM); MIC [34]: 8 µg/mL (≈ 17.8 µM); MIC [35]: 0.5 µg/mL (≈ 1.11 µM); MIC [36]: 4 µg/mL (≈ 8.9 µM); MIC [37]: 2 µg/mL (≈ 4.45 µM)
